Laboratory results from PMC10791897, “Ligand-binding properties of XaffOBP9, a Minus-C odorant-binding protein from Xyleborus affinis (Coleoptera: Curculionidae: Scolytinae)” (Frontiers in Physiology, 2024).
Entries after “also recorded” stand apart in the source; their conditions may differ. Read-outs that look alike come from different tables or passages of the source.

What was measured:
XaffOBP9 = assay: Fluorescence binding assays of XaffOBP9 (1-NPN titration and competitive binding); set-up: species or system Xyleborus affinis; details: for Ki: calculated from IC50: Ki = [IC50]/(1 + [1-NPN]/K1-NPN); for IC50: competitor displacing 1-NPN, 2 μM protein, 50 mM Tris-HCl pH 7.4
Protocol: (§1) The purified XaffOBP9 was dissolved at a final concentration of 2 μM in 50 mM Tris-HCl (pH 7.4). The binding ability of the fluorescent probe to XaffOBP9 was measured using the Infinite 200 PRO microplate plate reader (Tecan, Mannedorf, Switzerland). […] These compounds (>90% puity) were purchased from Yuanye Bio-Technology (Shanghai, China), Alading Chemical Industry (Shanghai, China) and Sigma-Aldrich (MO, United States). Binding data were collected as three independent measurements. […] The data analysis and binding curve calculations were processed in Prism 8 (Graphpad Software, San Diego, CA, United States).

XaffOBP9 mutant L114A = assay: Fluorescence binding assays of mutant L114A; set-up: species or system Xyleborus affinis; details: for binding of ligand to L114A mutant protein: fluorescence binding assays, classes by Ki as in Figure 8 legend
Protocol: (§2) The purified XaffOBP9 was dissolved at a final concentration of 2 μM in 50 mM Tris-HCl (pH 7.4). The binding ability of the fluorescent probe to XaffOBP9 was measured using the Infinite 200 PRO microplate plate reader (Tecan, Mannedorf, Switzerland). […] Binding data were collected as three independent measurements. […] The data analysis and binding curve calculations were processed in Prism 8 (Graphpad Software, San Diego, CA, United States).
(§3) Three types of XaffOBP9 mutants (L71A, L114A, Y106A) were generated using the Fast Site-Directed Mutagenesis Kit (Tiangen, Beijing, China) according to manufacturer protocol. Sited-directed mutagenesis primers were listed in Supplementary Table S1 The PCR amplification reaction was 95°C for 2 min, followed by 94 C for 20 s, 55 C for 10 s, 68 C 2.5 min, with final incubation at 68 °C for 5 min. The three mutant proteins were then expressed and purified following the procedures used for wild-type XaffOBP9.

X. affinis = details: cited from earlier work; for attraction of X. affinis: 2020
XaffOBP9 mutant Y106A = assay: Fluorescence binding assays of mutant Y106A; set-up: species or system Xyleborus affinis
Protocol: as §2, §3

XaffOBP9 mutant L71A = assay: Fluorescence binding assays of mutant L71A; set-up: species or system Xyleborus affinis; details: read-out: Kd with 1-NPN
Protocol: as §1, §3

| Structure (SMILES) | Ki (XaffOBP9) [µM] | IC50 (XaffOBP9) [µM] | binding of ligand to L114A mutant protein (XaffOBP9 mutant L114A) | other results |
| --- | --- | --- | --- | --- |
| C=C1CCC2CC1C2(C)C (stereo not drawn) [(-)-β-pinene] | 13.7 | 16 | – | – |
| CC1=CCC2C(C1)C2(C)C (stereo not drawn) [Ligand 3-Carene, 3-Carene] | 10.6 | 12.4 | lost its ability to bind | – |
| Cc1cccc(C(C)C)c1 [m-Cymene] | 14.8 | 17.3 | weakly bound | – |
| C=C1CCC2(C(C)C)CC12 (stereo not drawn) [Sabinene] | 15.6 | 18.2 | lost its ability to bind | – |
| C=C1C2CCC(C2)C1(C)C (stereo not drawn) [Camphene] | 8 | 9.3 | – | – |
| CC1=CCC2CC1C2(C)C (stereo not drawn) [α-pinene] | 8.5 | 9.9 | – | effect on attraction of X. affinis (X. affinis; trapping investigations, ref Miller and Rabaglia, 2009): enhance the attractive effect of ethanol |
| CC1=CC(O)C2CC1C2(C)C [(S)-cis-Verbenol] | 13.9 | 16.2 | weakly bound | attraction of this rubber bark beetle (X. affinis; aggregation pheromone, ref Brand et al., 1975, Chen et al., 2019): exhibits attraction effects |
| C=C1C2CCC3C2C(C)(C)CCCC13C (single isomer, unassigned; (+)) [(+)-Longifolene] | 16.7 | 19.5 | lost its ability to bind | attraction of X. affinis (X. affinis; ref Xu et al.): attraction effect |
| CCCCCCCCCCCCCCCC(=O)OC [Methyl palmitate] | – | – | – | reduction of relative fluorescence intensity of the [XaffOBP/1-NPN] mixture (XaffOBP9; competitive fluorescence binding curves): did not reduce the relative fluorescence intensity to less than half |
| C=CC(=C)CCC=C(C)C [Myrcene] | 9.8 | 11.4 | lost its ability to bind | – |
| c1ccc(Nc2cccc3ccccc23)cc1 [Ligand 1-NPN, N-phentl-1-naphthylamine, reference compound] | – | – | – | Kd (XaffOBP9; read-out: dissociation constant K 1-NPN, titration of 2 μM protein with 1-NPN, Scatchard plot): 5.91 µM; Kd (XaffOBP9 mutant Y106A; read-out: Kd with 1-NPN, mutant Y106A): 8.7 µM; Kd (XaffOBP9 mutant L71A): 5.97 µM; Kd (XaffOBP9 mutant L114A; read-out: Kd with 1-NPN, mutant L114A): 14.8 µM |
| CC(C)(O)c1ccccc1 [2-Phenyl-2-propanol] | 12 | 14 | lost its ability to bind | attraction of X. affinis (X. affinis; ref Xu et al.): attraction effect |
| CCCCCCCCCCCCCC [Tetradecane] | 13.5 | 15.7 | lost its ability to bind | change of binding affinity of Y106A compared with WT (XaffOBP9 mutant Y106A; fluorescence binding assays): noticeable decrease in its affinity; also recorded: certain decrease in binding; attraction of X. affinis (X. affinis; ref Xu et al.): attraction effect |
| CC1=CCC(=C(C)C)CC1 [Terpinolene] | 11.3 | 13.2 | lost its ability to bind | – |
| C=C(C)[C@@H]1CC=C(C)CC1 [(S)-(-)-Limonene] | 14 | 16.4 | lost its ability to bind | – |
| CC1=CC[C@H]2[C@H]3[C@@H]1[C@]2(C)CC[C@H]3C(C)C [α-copaene] | 11.4 | 13.3 | weakly bound | – |
| CCO [ethanol] | – | – | – | attraction of X. affinis (X. affinis; attractant lure, ref Ranger et al., 2011, Steininger et al., 2015, Lehenberger et al., Cavaletto et al., 2021): only weakly attracted |
